The values below come from ChEMBL document CHEMBL5729054, “Five membered-aminoheterocycle and 5,6-or 6,6-membered bicyclic aminoheterocyclic inhibitors of rock for the treatment of heart failure” (2022).

The structures appear in SMILES notation.

This assay addresses Rho-associated protein kinase 2 (Homo sapiens, UniProt O75116). The experiment in a line: In Vitro Assay: The effectiveness of compounds of the present invention as ROCK inhibitors can be determined in a 30 μL assay containing 20 mM HEPES, pH 7.5, 20 mM MgCl2, 0.015% Brij-35, 4 mM DTT, 5 μM ATP and 1.5 μM peptide substrate (FITC-AHA-AKRRRLSSLRA-OH) (SEQ ID No. 1). Compounds were dissolved in DMSO so that the final concentration of DMSO was <2%, and the reaction was initiated with Rho kinase variants. After incubation, the reaction was terminated by the addition of EDTA and the phosphorylated and non-phosphorylated peptides separated using a LABCHIP® 3000 Reader (Caliper Life Sciences). […] Compounds were tested in dose-response format, and the inhibition of kinase activity was calculated at each concentration of compound. The inhibition data were fit using a curve-fitting program to determine the IC50; i.e., the concentration of compound required to inhibit 50% of kinase activity.

Chain of Rho-associated protein kinase 2 (O75116 whole entry, looked up, change not shown): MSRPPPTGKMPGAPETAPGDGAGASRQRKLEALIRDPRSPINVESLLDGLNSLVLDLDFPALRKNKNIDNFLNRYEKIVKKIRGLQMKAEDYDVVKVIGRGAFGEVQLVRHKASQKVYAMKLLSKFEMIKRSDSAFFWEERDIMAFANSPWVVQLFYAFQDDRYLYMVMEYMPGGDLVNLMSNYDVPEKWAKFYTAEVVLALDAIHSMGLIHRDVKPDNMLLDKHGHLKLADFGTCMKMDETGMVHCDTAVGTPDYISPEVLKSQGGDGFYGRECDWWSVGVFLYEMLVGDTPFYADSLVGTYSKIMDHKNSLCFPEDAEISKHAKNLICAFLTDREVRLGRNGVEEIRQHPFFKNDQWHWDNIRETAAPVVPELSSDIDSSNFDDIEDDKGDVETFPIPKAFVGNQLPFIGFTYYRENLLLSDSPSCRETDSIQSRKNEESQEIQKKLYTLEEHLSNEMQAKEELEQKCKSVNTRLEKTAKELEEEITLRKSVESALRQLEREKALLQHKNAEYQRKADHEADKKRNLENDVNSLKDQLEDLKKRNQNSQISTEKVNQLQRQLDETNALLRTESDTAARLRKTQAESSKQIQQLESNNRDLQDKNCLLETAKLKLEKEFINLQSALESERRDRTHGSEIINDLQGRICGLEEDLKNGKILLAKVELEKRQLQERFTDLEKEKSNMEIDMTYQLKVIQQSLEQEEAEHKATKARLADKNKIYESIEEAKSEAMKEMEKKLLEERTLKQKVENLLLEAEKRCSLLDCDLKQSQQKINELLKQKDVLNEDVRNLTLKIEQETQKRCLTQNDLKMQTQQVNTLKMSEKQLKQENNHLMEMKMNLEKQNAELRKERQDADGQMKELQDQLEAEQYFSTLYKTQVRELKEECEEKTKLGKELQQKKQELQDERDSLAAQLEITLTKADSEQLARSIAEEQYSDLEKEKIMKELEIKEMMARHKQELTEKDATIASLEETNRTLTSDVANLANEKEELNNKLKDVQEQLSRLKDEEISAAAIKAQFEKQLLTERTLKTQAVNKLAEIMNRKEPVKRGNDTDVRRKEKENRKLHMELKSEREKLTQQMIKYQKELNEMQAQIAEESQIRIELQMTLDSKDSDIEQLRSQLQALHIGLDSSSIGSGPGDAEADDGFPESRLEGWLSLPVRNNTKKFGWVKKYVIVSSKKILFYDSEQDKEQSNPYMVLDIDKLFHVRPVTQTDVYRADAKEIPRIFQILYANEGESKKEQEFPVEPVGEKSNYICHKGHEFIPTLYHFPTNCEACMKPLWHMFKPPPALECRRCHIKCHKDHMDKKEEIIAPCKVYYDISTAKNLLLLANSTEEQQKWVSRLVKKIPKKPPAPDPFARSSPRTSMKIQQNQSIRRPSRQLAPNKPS

What is called IC50 is the point on the concentration scale where inhibition reaches its midpoint. With `N#Cc1cnc(NC2CC3(C2)CC(Oc2ncccc2C(N)=O)C3)nc1` (stereo unspecified), the IC50 is 1.51 µM.
